Test results as given in patent publication US20240082334A1, “STABILIZED STEVIOL GLYCOSIDE COMPOSITIONS AND USES THEREOF” (CARGILL, INCORPORATED, priority 2017, published 2024).

Experiment: Reb M solubility in D2O observed in NMR sample preparation
Format: physicochemical
Conditions: when SCs are not present, compared with SCs present; room temperature
Method: A total of four samples were prepared for this study, and they are listed below. Each sample was dissolved fully in water, with or without heat as noted below, flash frozen at −80° C., and then placed on a lyophilizer until dry. The dry powders were subsequently dissolved in D2O at room temperature and analyzed by ^1H NMR and ^13C NMR.

C=C1C[C@@]23CC[C@H]4[C@@](C)(CCC[C@@]4(C)C(=O)O[C@@H]4O[C@H](CO)[C@@H](O)[C@H](O[C@@H]5O[C@H](CO)[C@@H](O)[C@H](O)[C@H]5O)[C@H]4O[C@@H]4O[C@H](CO)[C@@H](O)[C@H](O)[C@H]4O)[C@@H]2CC[C@]1(O[C@@H]1O[C@H](CO)[C@@H](O)[C@H](O[C@@H]2O[C@H](CO)[C@@H](O)[C@H](O)[C@H]2O)[C@H]1O[C@@H]1O[C@H](CO)[C@@H](O)[C@H](O)[C@H]1O)C3 [Reb M, Rebaudioside M]
solubility in D2O: much lower
